Results from US6800672B2, “Biodegradable compositions comprising poly(cycloaliphatic phosphoester) compounds, articles, and methods for using the same” (Guilford Pharmaceuticals, Inc., priority 1997, dated 2004).
Where “and” joins values, the source holds several entries; their conditions need not be identical. Equal values may be shown once. Where a name gives a salt, the structure may show the parent alone. Read-outs that look alike come from different tables or passages of the source.

Key:
[1] = test system: melanoma cell line B16/F10 tumors
[2] = test system: melanoma cell line B16/F10; experiment: Drug sensitivity in an in vitro tumor model; format: cell-based; details: vs cisplatin and 5-FU, even at 0.1 μg/mL
From the text: The B16/F10 cells were cultivated in the presence of different concentrations of DOX, cisplatin and 5-FU.

Structure (SMILES) | Number of Mice Survived, 28 days ([1]; mouse, in vivo) | early death after injection ([1]; mouse, in vivo) | Number of Mice Survived, 42 days ([1]; mouse, in vivo, hydrochloride) | Tumor Volume After Tumor Injection, 28 days ([1]; treatment injected Day 3 (3d)) [mm^3] | Tumor Volume After Tumor Injection, 42 days ([1]; treatment injected Day 3 (3d)) [mm^3] | Tumor Volume After Tumor Injection, 28 days ([1]; treatment injected Day 7 (7d)) [mm^3] | Tumor Volume After Tumor Injection, 42 days ([1]; treatment injected Day 7 (7d)) [mm^3] | inhibitory effect on the cell culture [2]
COc1cccc2c1C(=O)c1c(O)c3c(c(O)c1C2=O)C[C@@](O)(C(=O)CO)C[C@@H]3O[C@H]1C[C@H](N)[C@H](O)[C@H](C)O1 [Bolus Dox, doxorubicin hydrochloride] | 8 | did not produce early death | 5 and 3 | 1218.9 ± 304.1 | 3942.5 ± 1818 | 1661.2 ± 301.8 | 4394.3 ± 741.3 | –
COc1cccc2c1C(=O)c1c(O)c3c(c(O)c1C2=O)C[C@@](O)(C(=O)CO)C[C@@H]3O[C@H]1C[C@H](N)[C@H](O)[C@H](C)O1 [DOX, doxorubicin] | – | – | – | – | – | – | – | strongest inhibitory effect
